Measured values taken from ChEMBL document CHEMBL5465560, “Selectivity Literature for EUbOPEN Chemogenomic Library” (2024).

Experiments:
[1] = target: Mitogen-activated protein kinase 3 (Homo sapiens, UniProt P27361); assay: Selectivity interaction (KinomeScan (DiscoverX)) EUB0000092b MAPK3; details: at 10 µM
[2] = target: T1, Serine/threonine-protein kinase Sgk3 (Homo sapiens) (UniProt Q96BR1); assay: Selectivity interaction (KinomeScan (DiscoverX)) EUB0001079a SGK3; details: at 1 µM
T1 sequence (whole entry): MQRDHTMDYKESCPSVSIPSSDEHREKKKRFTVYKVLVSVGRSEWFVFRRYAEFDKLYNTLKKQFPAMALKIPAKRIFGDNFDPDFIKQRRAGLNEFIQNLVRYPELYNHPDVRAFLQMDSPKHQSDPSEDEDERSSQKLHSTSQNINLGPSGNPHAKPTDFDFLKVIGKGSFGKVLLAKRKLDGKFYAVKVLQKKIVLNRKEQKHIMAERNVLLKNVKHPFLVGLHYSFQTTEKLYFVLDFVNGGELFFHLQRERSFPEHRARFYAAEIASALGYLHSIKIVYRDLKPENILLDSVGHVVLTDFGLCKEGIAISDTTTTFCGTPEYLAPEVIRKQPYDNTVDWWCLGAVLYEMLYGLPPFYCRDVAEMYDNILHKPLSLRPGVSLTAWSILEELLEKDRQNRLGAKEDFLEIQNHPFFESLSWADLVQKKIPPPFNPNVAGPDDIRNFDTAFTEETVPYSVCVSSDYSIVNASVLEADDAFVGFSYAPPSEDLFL

[3] = target: Receptor tyrosine-protein kinase erbB-2 (Homo sapiens, UniProt P04626); assay: Selectivity interaction (Kinase panel (33PanQinase(R) Activity Assay)) EUB0000877a ERBB2
[4] = target: High affinity nerve growth factor receptor (Homo sapiens, UniProt P04629); assay: Selectivity interaction (KinaseProfiler screening (Millipore)) EUB0000601a NTRK1; details: at 3 µM
Chain of High affinity nerve growth factor receptor (P04629 33-796 limits assumed): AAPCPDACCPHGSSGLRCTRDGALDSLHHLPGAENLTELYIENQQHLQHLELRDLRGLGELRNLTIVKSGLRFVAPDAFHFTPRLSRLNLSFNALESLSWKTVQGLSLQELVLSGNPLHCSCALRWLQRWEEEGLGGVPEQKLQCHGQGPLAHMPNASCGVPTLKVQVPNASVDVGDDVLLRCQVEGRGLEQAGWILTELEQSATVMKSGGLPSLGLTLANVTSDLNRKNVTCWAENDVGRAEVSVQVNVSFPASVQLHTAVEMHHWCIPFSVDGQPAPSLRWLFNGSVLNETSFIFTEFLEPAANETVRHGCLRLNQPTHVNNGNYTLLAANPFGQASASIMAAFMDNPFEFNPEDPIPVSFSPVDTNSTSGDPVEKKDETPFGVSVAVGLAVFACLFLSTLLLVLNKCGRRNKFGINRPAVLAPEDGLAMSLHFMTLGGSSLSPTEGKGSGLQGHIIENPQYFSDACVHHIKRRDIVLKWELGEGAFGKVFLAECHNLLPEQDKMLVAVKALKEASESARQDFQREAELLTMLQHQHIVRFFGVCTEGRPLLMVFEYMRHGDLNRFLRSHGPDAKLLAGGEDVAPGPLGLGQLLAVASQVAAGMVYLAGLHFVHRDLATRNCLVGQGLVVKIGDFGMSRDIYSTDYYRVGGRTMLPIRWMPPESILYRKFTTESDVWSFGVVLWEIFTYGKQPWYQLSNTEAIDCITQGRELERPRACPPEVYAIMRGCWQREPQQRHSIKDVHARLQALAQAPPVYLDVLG

[5] = target: T2, Rhodopsin kinase GRK7 (Homo sapiens) (UniProt Q8WTQ7); details: at 10 µM
T2 sequence (whole entry): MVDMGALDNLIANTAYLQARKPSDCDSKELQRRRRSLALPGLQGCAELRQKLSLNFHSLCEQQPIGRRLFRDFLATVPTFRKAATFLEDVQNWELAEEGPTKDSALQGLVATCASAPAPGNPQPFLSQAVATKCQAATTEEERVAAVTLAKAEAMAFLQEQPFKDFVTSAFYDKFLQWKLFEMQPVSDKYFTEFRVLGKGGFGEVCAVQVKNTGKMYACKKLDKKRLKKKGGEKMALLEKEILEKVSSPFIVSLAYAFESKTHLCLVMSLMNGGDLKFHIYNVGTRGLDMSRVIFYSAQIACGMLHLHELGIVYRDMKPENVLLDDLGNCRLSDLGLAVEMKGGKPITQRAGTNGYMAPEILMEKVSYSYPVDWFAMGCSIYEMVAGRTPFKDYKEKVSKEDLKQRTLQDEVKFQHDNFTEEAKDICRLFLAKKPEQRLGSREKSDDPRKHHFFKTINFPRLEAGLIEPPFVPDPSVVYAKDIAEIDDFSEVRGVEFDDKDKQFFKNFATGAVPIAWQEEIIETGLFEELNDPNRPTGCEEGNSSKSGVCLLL

[6] = target: T3, Phosphatidylinositol 4,5-bisphosphate 3-kinase catalytic subunit delta isoform (Homo sapiens) (UniProt O00329); assay: Selectivity interaction (Adapta Assay) EUB0001632a PIK3CD; details: at 10 µM
T3 sequence (whole entry): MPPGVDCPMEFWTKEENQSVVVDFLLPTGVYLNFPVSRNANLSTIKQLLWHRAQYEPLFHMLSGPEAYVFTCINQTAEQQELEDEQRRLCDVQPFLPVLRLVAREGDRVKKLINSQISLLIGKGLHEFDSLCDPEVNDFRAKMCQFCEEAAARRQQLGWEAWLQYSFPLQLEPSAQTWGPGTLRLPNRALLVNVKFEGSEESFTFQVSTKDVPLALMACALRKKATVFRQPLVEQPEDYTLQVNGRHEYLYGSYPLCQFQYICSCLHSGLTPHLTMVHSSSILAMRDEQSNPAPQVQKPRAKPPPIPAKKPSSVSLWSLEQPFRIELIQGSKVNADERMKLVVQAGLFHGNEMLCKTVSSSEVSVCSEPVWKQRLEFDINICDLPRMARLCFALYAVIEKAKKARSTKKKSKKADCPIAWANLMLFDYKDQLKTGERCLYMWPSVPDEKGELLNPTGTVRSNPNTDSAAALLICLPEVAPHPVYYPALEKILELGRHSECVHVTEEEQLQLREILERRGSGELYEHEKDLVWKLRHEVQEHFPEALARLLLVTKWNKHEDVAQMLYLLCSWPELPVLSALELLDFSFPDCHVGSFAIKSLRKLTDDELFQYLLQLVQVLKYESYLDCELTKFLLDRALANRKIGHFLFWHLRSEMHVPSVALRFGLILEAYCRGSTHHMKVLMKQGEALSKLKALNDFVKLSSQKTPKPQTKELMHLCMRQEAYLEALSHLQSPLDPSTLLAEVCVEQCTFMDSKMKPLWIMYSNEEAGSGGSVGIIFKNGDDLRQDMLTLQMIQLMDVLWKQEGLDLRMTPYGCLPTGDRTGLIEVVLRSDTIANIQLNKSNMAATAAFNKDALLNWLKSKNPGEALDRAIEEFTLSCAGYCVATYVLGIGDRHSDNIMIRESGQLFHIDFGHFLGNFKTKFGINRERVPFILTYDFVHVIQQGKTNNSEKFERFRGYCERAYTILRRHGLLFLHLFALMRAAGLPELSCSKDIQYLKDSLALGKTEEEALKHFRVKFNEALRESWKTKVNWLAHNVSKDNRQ

[7] = target: Casein kinase I isoform gamma-2 (Homo sapiens) (UniProt P78368); assay: Selectivity interaction (SelectScreen profiling (Invitrogen)) EUB0000607a CSNK1G2; details: at 2 µM
Chain of Casein kinase I isoform gamma-2 (Homo sapiens) (P78368 whole entry, looked up, canonical isoform): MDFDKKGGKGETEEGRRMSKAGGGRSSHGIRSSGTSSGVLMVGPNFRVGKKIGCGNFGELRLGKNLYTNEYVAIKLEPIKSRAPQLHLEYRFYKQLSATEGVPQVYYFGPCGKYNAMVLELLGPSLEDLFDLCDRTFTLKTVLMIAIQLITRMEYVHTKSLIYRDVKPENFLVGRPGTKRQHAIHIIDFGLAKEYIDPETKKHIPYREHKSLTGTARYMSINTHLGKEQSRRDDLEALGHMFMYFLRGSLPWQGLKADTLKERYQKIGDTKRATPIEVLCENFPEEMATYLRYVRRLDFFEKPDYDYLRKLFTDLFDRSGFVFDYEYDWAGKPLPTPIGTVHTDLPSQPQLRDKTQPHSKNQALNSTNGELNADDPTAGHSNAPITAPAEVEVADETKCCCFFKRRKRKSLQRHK

[8] = target: MAP kinase-interacting serine/threonine-protein kinase 1 (Homo sapiens) (UniProt Q9BUB5); assay: Selectivity interaction (KinomeScan (DiscoverX)) EUB0001049a MKNK1; details: at 1 µM
Chain of MAP kinase-interacting serine/threonine-protein kinase 1 (Homo sapiens) (Q9BUB5 whole entry, looked up): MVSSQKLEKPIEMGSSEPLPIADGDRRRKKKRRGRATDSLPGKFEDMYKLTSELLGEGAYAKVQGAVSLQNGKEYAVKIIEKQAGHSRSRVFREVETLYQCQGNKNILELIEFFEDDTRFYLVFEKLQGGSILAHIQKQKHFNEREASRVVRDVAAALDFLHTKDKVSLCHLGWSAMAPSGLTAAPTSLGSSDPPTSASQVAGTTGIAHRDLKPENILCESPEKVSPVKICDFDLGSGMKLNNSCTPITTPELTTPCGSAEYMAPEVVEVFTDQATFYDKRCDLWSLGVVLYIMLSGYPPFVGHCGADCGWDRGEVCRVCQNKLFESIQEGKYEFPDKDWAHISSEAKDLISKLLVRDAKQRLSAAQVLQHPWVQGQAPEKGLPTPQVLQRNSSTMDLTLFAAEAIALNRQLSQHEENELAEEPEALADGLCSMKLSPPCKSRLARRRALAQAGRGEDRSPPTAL

[9] = target: Myosin light chain kinase 2, skeletal/cardiac muscle (Homo sapiens) (UniProt Q9H1R3); assay: Selectivity interaction (KinomeScan (DiscoverX)) EUB0000695a MYLK2; details: at 100 nM
Chain of Myosin light chain kinase 2, skeletal/cardiac muscle (Homo sapiens) (Q9H1R3 whole entry): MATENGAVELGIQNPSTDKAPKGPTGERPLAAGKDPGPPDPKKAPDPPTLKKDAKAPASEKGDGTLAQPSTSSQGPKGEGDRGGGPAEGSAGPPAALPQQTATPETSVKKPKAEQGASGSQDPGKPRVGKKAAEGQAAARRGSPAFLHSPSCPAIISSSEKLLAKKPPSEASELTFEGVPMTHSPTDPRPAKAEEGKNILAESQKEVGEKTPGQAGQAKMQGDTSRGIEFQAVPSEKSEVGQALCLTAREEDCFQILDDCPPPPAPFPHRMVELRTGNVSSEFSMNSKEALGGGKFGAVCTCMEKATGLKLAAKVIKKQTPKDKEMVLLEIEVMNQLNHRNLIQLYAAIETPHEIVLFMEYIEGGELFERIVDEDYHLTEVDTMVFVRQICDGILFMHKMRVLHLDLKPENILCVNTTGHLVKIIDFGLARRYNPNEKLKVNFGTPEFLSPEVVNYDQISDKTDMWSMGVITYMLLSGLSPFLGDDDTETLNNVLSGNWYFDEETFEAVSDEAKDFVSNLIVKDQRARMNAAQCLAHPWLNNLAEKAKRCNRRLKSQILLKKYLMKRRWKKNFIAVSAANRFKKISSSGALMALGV

[10] = target: Insulin receptor-related protein (Homo sapiens) (UniProt P14616); assay: Selectivity interaction (KinomeScan (DiscoverX)) EUB0000045b INSRR
Chain of Insulin receptor-related protein (Homo sapiens) (P14616 27-742 limits assumed): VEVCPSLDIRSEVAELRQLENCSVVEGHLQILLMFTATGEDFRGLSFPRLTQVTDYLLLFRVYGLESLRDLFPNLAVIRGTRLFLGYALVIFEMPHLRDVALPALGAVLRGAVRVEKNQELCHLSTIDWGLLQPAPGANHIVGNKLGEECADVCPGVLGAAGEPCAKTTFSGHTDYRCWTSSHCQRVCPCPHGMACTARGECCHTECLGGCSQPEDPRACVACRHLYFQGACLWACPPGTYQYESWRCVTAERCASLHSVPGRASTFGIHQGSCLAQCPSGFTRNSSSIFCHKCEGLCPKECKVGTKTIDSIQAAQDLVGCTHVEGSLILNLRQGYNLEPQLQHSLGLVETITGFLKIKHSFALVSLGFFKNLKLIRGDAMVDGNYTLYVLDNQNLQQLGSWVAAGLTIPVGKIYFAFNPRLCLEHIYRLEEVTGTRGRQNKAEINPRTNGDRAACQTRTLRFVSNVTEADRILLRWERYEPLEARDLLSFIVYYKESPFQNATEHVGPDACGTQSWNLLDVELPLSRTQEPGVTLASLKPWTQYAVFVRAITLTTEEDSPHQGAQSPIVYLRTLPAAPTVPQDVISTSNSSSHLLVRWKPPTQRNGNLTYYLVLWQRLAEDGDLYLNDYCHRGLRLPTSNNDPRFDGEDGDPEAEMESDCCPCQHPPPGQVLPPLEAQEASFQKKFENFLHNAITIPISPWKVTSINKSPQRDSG
Chain of Insulin receptor-related protein (Homo sapiens) (P14616 747-1297 limits assumed): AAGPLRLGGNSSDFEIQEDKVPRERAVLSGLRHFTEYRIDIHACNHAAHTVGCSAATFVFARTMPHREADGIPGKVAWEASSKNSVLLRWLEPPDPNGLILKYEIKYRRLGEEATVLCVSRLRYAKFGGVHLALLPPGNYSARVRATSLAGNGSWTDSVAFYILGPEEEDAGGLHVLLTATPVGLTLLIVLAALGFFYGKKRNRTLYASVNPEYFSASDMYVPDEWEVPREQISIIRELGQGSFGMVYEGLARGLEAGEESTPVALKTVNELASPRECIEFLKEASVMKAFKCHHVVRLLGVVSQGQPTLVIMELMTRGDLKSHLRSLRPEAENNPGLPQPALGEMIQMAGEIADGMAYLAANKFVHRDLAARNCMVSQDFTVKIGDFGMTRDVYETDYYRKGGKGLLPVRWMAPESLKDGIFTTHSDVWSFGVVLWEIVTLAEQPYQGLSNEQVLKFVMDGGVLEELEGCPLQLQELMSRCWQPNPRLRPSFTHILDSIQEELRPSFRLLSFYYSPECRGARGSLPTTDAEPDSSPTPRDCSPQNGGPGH

[11] = target: Maternal embryonic leucine zipper kinase (Homo sapiens) (UniProt Q14680); assay: Selectivity interaction (KinomeScan (DiscoverX)) EUB0000045b MELK
Chain of Maternal embryonic leucine zipper kinase (Homo sapiens) (Q14680 whole entry, looked up): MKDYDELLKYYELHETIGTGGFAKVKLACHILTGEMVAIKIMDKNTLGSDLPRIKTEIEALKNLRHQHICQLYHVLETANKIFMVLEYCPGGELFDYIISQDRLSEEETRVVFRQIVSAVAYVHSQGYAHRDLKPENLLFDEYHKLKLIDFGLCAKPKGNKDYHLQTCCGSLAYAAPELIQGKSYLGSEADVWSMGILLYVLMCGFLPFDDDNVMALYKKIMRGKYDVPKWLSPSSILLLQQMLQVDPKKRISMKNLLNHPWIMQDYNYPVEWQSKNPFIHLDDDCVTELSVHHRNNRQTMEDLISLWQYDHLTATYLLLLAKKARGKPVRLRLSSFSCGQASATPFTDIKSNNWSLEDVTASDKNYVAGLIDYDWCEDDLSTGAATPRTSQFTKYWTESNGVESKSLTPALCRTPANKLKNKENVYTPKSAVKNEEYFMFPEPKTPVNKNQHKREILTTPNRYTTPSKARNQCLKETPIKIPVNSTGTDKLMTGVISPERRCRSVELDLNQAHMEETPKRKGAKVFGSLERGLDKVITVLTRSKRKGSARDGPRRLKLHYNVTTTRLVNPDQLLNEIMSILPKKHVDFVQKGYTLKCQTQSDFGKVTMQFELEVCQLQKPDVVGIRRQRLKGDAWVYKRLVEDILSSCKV

Chain of Mitogen-activated protein kinase 3 (P27361 whole entry): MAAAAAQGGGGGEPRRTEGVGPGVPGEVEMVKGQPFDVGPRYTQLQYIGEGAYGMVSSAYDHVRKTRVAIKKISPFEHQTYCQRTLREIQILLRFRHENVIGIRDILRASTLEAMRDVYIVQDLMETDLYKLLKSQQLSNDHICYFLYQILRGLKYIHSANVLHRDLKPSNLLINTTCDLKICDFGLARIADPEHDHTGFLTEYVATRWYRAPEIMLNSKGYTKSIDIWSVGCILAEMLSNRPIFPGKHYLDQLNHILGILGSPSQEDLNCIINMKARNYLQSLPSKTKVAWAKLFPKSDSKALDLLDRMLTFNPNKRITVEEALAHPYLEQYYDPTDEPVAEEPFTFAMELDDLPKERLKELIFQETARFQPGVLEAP

CCC(=O)N1CCN(c2ccc(-n3c(=O)ccc4cnc5ccc(-c6cnc7ccccc7c6)cc5c43)cc2C(F)(F)F)CC1
% of control [1]: 91%

Nc1cnc(N2CCc3cc(S(=O)(=O)Nc4c(F)cc(Cl)cc4F)cc(N4CCCC4=O)c32)nc1 [TP-020n]
% of control [2]: 100%

CCC(=O)N1CC[C@H](Nc2ncnc3c2CN(c2cnc(OC)c(C(F)(F)F)c2)CC3)C1 [LENIOLISIB]
IC50 [3]: > 10 µM

CCc1cc(Nc2nccc(-c3c(-c4ccc(OC)c(C(=O)Nc5c(F)cccc5F)c4)nc4ccccn34)n2)c(OC)cc1N1CCC(N2CCN(S(C)(=O)=O)CC2)CC1
% of inhibition [4]: 59%

Cc1cc([C@@H](C)Nc2ccccc2C(=O)O)c2nc(N3CCOCC3)cc(=O)n2c1 [AZD-6482]
% of control [5]: 57%

Cn1cc(-n2cnc3c(NCc4nc5cc(Cl)c(Cl)cc5[nH]4)nc(N4CCOCC4)nc32)cn1
% of inhibition [6]: 66.6%

CNC(=O)Nc1ccc(-c2nc(N3CC4CCC(C3)O4)c3cnn(C4CCC5(CC4)OCCO5)c3n2)cc1
% of inhibition [7]: -6%

COc1cc(Nc2nc(C)cc(-c3cnn4nc(OC)ccc34)n2)cc(C(F)(F)F)c1
% of control [8]: 93%

Cc1cc(F)c(C(=O)Nc2cccc(-c3nncn3C(C)C)n2)cc1-n1cnc(C2CC2)c1
% of control [9]: 100%

C=CC(=O)Nc1cc(-n2c(=O)ccc3cnc4ccc(-c5ccc(NS(C)(=O)=O)cc5)cc4c32)ccc1C
% of control ([10]; at 1 µM): 98% | % of control ([10]; at 10 µM): 100% | % of control ([11]; at 1 µM): 100% | % of control ([11]; at 10 µM): 75%
